In the assay the target is T1, Full-length, GST-tagged, human CaMKIIδ (Homo sapiens, UniProt Q13557).
T1 construct: Full-Length, Glutathione-S-Transferase(GST)-Tagged, Human CaMKIIδ was purchased from Carna Biosciences; purchased Carna Biosciences 02-111
The experiment in a line: CaMKIIδ binding assay (TR-FRET with BODIPY-labeled probe ligand). On the procedure:
In vitro CaMKIIδ inhibitory activity was evaluated by a binding assay.
Full-Length, Glutathione-S-Transferase(GST)-Tagged, Human CaMKIIδ was purchased from Carna Biosciences (product #02-111, Kobe, Japan). Full-length bovine calmodulin was purchased from Wako Pure Chemical Industries (Osaka, Japan). Terbium-labeled anti-GST antibody (Tb-anti-GST Ab) was purchased from Life Technologies (Carlsbad, Calif., USA). Boron-dipyrromethene (BODIPY)-labeled probe ligand was synthesized as described below.
Time-Resolved Fluorescence Resonance Energy Transfer (TR-FRET) Assay
All assays were conducted using 384-well, white, flat-bottomed plates (product #784075, Greiner Bio-One, Frickenhausen, Germany) in kinase assay buffer, which consists of 50 mM HEPES pH 7.6, 10 mM MgCl2, 1 mM EGTA, 0.01% Brig-35, 0.1 mM DTT). The fluorescent probe ligand was added at a final concentration of 300 nM to solutions containing 0.21 nM Tb-anti-GST Ab, 1 mM CaCl2), 10 μg/mL calmodulin, and 0.5 nM GST-tagged CaMKIIδ. After shaded incubation of the protein-probe mixture on ice for 30 min, the premix was dispensed in the assay plate including test inhibitors with 4 fold dilution series of eight concentrations. After 1 hr incubation at room temperature, TR-FRET signals were measured in duplicate using an EnVision microplate reader (Perkin Elmer, Waltham, Mass., USA). The solution in each well was excited with a laser (λ=340 nm) reflected by a dichroic mirror (D400/D505 (Perkin Elmer) through an excitation filter (UV (TRF) 340, (Perkin Elmer)), and fluorescence from Tb and BODIPY were detected through two emission filters (CFP 495 (Perkin Elmer) for Tb, Emission 520 (Perkin Elmer) for BODIPY).
The percentage of inhibition of test compounds was calculated according to equation (1) Inhibition (%)=100×([…]−T)/(μH−μL) (1)
Where T is the value of the wells containing test compounds and μH and μL are the mean values of the 0% and 100% inhibition control wells, respectively. The values of the 0 and 100% controls were the signals obtained in the absence and presence of 3 μM its parent compound, respectively. The half maximal inhibitory concentration (IC50) of test compounds was calculated by fitting the data with the logistic equation using XLfit (IDBS, Guildford, UK). The IC50 was classified according to the following activity ranks.
A general note: In TR-FRET formats the signal depends on donor and acceptor labels being close together.

Setting [1] is: CaMKIIδ binding assay, results of Table 2.
Setting [2] is: Table 2, activity class for CaMKIIδ.
Where [3] appears, read: Table 2, CaMKIIδ binding assay, activity given as class A/B/C.
Setting [4] is: CaMKIIδ binding assay, activity class per Table 2.

These results are taken from patent US10543212B2, “Substituted amines for treating cardiac diseases” (Cardurion Pharmaceuticals, LLC, priority 2017, dated 2020).

T1 sequence (Q13557 1-478 isoform Q13557-12): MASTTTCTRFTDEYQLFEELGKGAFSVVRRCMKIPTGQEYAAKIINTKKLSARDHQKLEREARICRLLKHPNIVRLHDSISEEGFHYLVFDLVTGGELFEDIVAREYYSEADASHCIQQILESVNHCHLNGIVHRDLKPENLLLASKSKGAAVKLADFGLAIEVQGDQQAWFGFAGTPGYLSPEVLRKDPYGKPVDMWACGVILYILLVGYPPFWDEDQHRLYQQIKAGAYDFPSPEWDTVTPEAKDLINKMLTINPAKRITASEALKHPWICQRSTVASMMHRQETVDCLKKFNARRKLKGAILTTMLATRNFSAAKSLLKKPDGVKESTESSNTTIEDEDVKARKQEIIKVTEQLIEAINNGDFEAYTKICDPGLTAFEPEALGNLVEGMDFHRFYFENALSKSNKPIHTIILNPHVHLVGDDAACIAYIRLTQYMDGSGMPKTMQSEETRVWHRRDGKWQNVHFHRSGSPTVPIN

Turning to `Cc1cnc(N2CCC(N3CCOCC3)CC2)cc1Nc1ncc(-c2ccc(C#N)c(O[C@@H](C)Cn3cnnn3)c2)cn1` [Example 509, (S)-2-((1-(1H-tetrazol-1-yl)propan-2-yl)oxy)-4-(2-((5-methyl-2-(4-morpholinopiperidin-1-yl)pyridin-4-yl)amino)pyrimidin-5-yl)benzonitrile], under setting [1], the IC50 (as a rule, the midpoint of a concentration-inhibition curve) was 0.01 to 0.1 µM.

As to `C[C@@H](Cn1cnnn1)Oc1cc(-c2cnc(Nc3cn([C@@H]4C[C@H]5CC[C@@H](C4)N5C4CCOCC4)nc3C(F)(F)F)nc2)ccc1Cl` [Example 703, 5-(3-(((S)-1-(1H-tetrazol-1-yl)propan-2-yl)oxy)-4-chlorophenyl)-N-(1-((1R,3s,5S)-8-(tetrahydro-2H-pyran-4-yl)-8-azabicyclo[3.2.1]octan-3-yl)-3-(trifluoromethyl)-1H-pyrazol-4-yl)pyrimidin-2-amine], the IC50 under setting [2] was less than 0.01 µM.

Regarding `Cc1ccc(-c2cnc(Nc3cn([C@H]4CC[C@H](N5CCOCC5)CC4)nc3C(F)(F)F)nc2)cc1O[C@@H](C)Cn1cnnn1` [Example 810, 5-(3-(((S)-1-(1H-tetrazol-1-yl)propan-2-yl)oxy)-4-methylphenyl)-N-(1-(trans-4-morpholinocyclohexyl)-3-(trifluoromethyl)-1H-pyrazol-4-yl)pyrimidin-2-amine], the IC50 under setting [3] is less than 0.01 µM.

As to `Cc1ccc(-c2cnc(Nc3cn([C@H]4CC[C@H](N5CCOCC5)CC4)nc3OCC(F)(F)F)nc2)cc1O[C@@H](C)Cn1cnnn1` [Example 811, 5-(3-(((S)-1-(1H-tetrazol-1-yl)propan-2-yl)oxy)-4-methylphenyl)-N-(1-(trans-4-morpholinocyclohexyl)-3-(2,2,2-trifluoroethoxy)-1H-pyrazol-4-yl)pyrimidin-2-amine], the IC50 under setting [3] was less than 0.01 µM.

`C[C@@H](Cn1cnnn1)Oc1cc(-c2cnc(Nc3cn(C4CCN(CCC(C)(C)C)CC4)nc3C(F)(F)F)nc2)ccc1Cl` [Example 547, (S)-5-(3-((1-(1H-tetrazol-1-yl)propan-2-yl)oxy)-4-chlorophenyl)-N-(1-(1-(3,3-dimethylbutyl)piperidin-4-yl)-3-(trifluoromethyl)-1H-pyrazol-4-yl)pyrimidin-2-amine] showed an IC50 under setting [1] of less than 0.01 µM.

In turn, `CC(C)c1nn(C2CC3(C2)CN(CC(C)(C)O)C3)cc1Nc1ncc(-c2ccc(Cl)c(O[C@@H](C)Cn3cnnn3)c2)cn1` [Example 947, (S)-1-(6-(4-((5-(3-((1-(1H-tetrazol-1-yl)propan-2-yl)oxy)-4-chlorophenyl)pyrimidin-2-yl)amino)-3-isopropyl-1H-pyrazol-1-yl)-2-azaspiro[3.3]heptan-2-yl)-2-methylpropan-2-ol] registered an IC50 under setting [4] of less than 0.01 µM.

Take `CC(=O)OC(C)(C)CN1CC2(CC(n3cc(Nc4ncc(-c5ccc(Cl)c(O[C@@H](C)Cn6cnnn6)c5)cn4)c(C(C)C)n3)C2)C1` [Example 975, (S)-1-(6-(4-((5-(3-((1-(1H-tetrazol-1-yl)propan-2-yl)oxy)-4-chlorophenyl)pyrimidin-2-yl)amino)-3-isopropyl-1H-pyrazol-1-yl)-2-azaspiro[3.3]heptan-2-yl)-2-methylpropan-2-yl acetate]: the IC50 under setting [4] is less than 0.01 µM.

In turn, `C[C@@H](Cn1cnnn1)Oc1cc(-c2cnc(Nc3cn(C4CC5(C4)CN(C4(C#N)CCOCC4)C5)nc3OCC(F)(F)F)nc2)ccc1Cl` [Example 1010, (S)-4-(6-(4-((5-(3-((1-(1H-tetrazol-1-yl)propan-2-yl)oxy)-4-chlorophenyl)pyrimidin-2-yl)amino)-3-(2,2,2-trifluoroethoxy)-1H-pyrazol-1-yl)-2-azaspiro[3.3]heptan-2-yl)tetrahydro-2H-pyran-4-carbonitrile] registered an IC50 under setting [4] of less than 0.01 µM.

Turning to `C[C@@H](Cn1cnnn1)Oc1cc(-c2cnc(Nc3cn([C@@H]4CN(C5CCC5)CC[C@H]4O)nc3C(F)(F)F)nc2)ccc1Cl` (mixture of isomers) [Example 904, trans-3-(4-((5-(3-(((S)-1-(1H-tetrazol-1-yl)propan-2-yl)oxy)-4-chlorophenyl)pyrimidin-2-yl)amino)-3-(trifluoromethyl)-1H-pyrazol-1-yl)-1-cyclobutylpiperidin-4-ol], the IC50 under setting [4] is less than 0.01 µM.

`C[C@@H](Cn1cnnn1)Oc1cc(-c2cnc(Nc3cc(C(F)(F)F)n(C)n3)nc2)ccc1Cl` [Example 711, (S)-5-(3-((1-(1H-tetrazol-1-yl)propan-2-yl)oxy)-4-chlorophenyl)-N-(1-methyl-5-(trifluoromethyl)-1H-pyrazol-3-yl)pyrimidin-2-amine] showed an IC50 under setting [2] not below 0.1 µM.

For the compound `COC1CCC(N2CCC(n3cc(Nc4ncc(-c5ccc(Cl)c(OC(C)Cn6cnnn6)c5)cn4)c(C(F)(F)F)n3)CC2)CC1` (single isomer, unassigned; less polar) [Example 568, (S)-5-(3-((1-(1H-tetrazol-1-yl)propan-2-yl)oxy)-4-chlorophenyl)-N-(1-(1-(cis or trans-4-methoxycyclohexyl)piperidin-4-yl)-3-(trifluoromethyl)-1H-pyrazol-4-yl)pyrimidin-2-amine, less polar], the IC50 under setting [1] is less than 0.01 µM.

Take `COc1ncc(N2CCN(C3CCOCC3)CC2)cc1Nc1ncc(-c2ccc(Cl)c(O[C@@H](C)Cn3cnnn3)c2)cn1` [Example 770, (S)-5-(3-((1-(1H-tetrazol-1-yl)propan-2-yl)oxy)-4-chlorophenyl)-N-(2-methoxy-5-(4-(tetrahydro-2H-pyran-4-yl)piperazin-1-yl)pyridin-3-yl)pyrimidin-2-amine]: the 50% inhibitory concentration (IC50) under setting [3] is less than 0.01 µM.

On to `CCOC(=O)c1c(Nc2ncc(-c3ccc(Cl)c(O[C@@H](C)Cn4cnnn4)c3)cn2)cnn1CC` [Example 872, ethyl (S)-4-((5-(3-((1-(1H-tetrazol-1-yl)propan-2-yl)oxy)-4-chlorophenyl)pyrimidin-2-yl)amino)-1-ethyl-1H-pyrazole-5-carboxylate], for which, under setting [3], the IC50 is less than 0.01 µM.

Compound “(S)-5-(3-((1-(1H-tetrazol-1-yl)propan-2-yl)oxy)-4-chlorophenyl)-N-(5-(piperidin-4-(trifluoromethoxy)phenyl)pyrimidin-2-amine [Example 532]” came in with an IC50 under setting [1] of less than 0.01 µM.

Under setting [1], `C[C@@H](Cn1cnnn1)Oc1cc(-c2cnc(Nc3cn(C4CCN(Cc5cc[nH]n5)CC4)nc3C(F)(F)F)nc2)ccc1Cl` [Example 561, (S)-N-(1-(1-((1H-pyrazol-3-yl)methyl)piperidin-4-yl)-3-(trifluoromethyl)-1H-pyrazol-4-yl)-5-(3-((1-(1H-tetrazol-1-yl)propan-2-yl)oxy)-4-chlorophenyl)pyrimidin-2-amine] displayed an IC50 of less than 0.01 µM.

Under setting [1], `CCN(C)CC(=O)N1CCc2cc(Nc3ncc(-c4ccc(Cl)c(O[C@@H](C)Cn5cnnn5)c4)cn3)c(OC)cc2C1` [Example 514, (S)-1-(6-((5-(3-((1-(1H-tetrazol-1-yl)propan-2-yl)oxy)-4-chlorophenyl)pyrimidin-2-yl)amino)-7-methoxy-3,4-dihydroisoquinolin-2(1H)-yl)-2-(ethyl(methyl)amino)ethan-1-one] registered a 50% inhibitory concentration (IC50) of less than 0.01 µM.

Turning to `C[C@@H](Cn1cnnn1)Oc1cc(-c2cnc(Nc3cn(C4CCCCNC4=O)nc3C(F)(F)F)nc2)ccc1Cl` (stereo partly drawn) [Example 629, 3-(4-((5-(3-(((S)-1-(1H-tetrazol-1-yl)propan-2-yl)oxy)-4-chlorophenyl)pyrimidin-2-yl)amino)-3-(trifluoromethyl)-1H-pyrazol-1-yl)azepan-2-one], the IC50 under setting [2] is less than 0.01 µM.

As to `C[C@@H](Cn1cnnn1)Oc1cc(-c2cnc(Nc3n[nH]cc3Cl)nc2)ccc1Cl` [Example 749, (S)-5-(3-((1-(1H-tetrazol-1-yl)propan-2-yl)oxy)-4-chlorophenyl)-N-(4-chloro-1H-pyrazol-3-yl)pyrimidin-2-amine], the IC50 under setting [3] fell in the range of 0.01 to 0.1 µM.

`COc1cc2c(cc1Nc1ncc(-c3ccc(Cl)c(O[C@@H](C)Cn4cnnn4)c3)cn1)C(=O)N(C1CCC1)C2` [Example 441, (S)-6-((5-(3-((1-(1H-tetrazol-1-yl)propan-2-yl)oxy)-4-chlorophenyl)pyrimidin-2-yl)amino)-2-cyclobutyl-5-methoxyisoindolin-1-one] displayed an IC50 under setting [1] of 0.01 to 0.1 µM.

Consider `COc1cnc(N2CCCC(N3CCOCC3)C2)cc1Nc1ncc(-c2ccc(Cl)c(O[C@@H](C)Cn3cnnn3)c2)cn1` (stereo partly drawn) [Example 457, 5-(3-(((S)-1-(1H-tetrazol-1-yl)propan-2-yl)oxy)-4-chlorophenyl)-N-(5-methoxy-2-(3-morpholinopiperidin-1-yl)pyridin-4-yl)pyrimidin-2-amine], for which the IC50 under setting [1] was 0.01 to 0.1 µM.
